One experiment relates to MDA-MB-231/ATCC. The experiment is described as follows: NCI one-dose (10 μM) testing, MDA-MB-231/ATCC. It is filed as cell-based. The procedure: (§1) (1E) 8a and 8b NCI one-dose (10 μM) test results side by side. % cancer growth inhibition >100 means there are less cancer cells at experiment end than beginning (i.e. cancer killing activity), =200=all cancer cells dead at experiment end. The observed pattern of 8a vs. 8b activity is hard to explain. One would expect one stereoisomer to have greater or equal activity than the other. […] Moreover, for one cancer cell line (NCI-H322M), 8a has no activity, yet 8b does.

The subject of experiment [1] is cancer cell lines of the NCI-60 assay. The experiment is described as follows: NCI-60 five-dose in vitro assay. It is filed as cell-based. The note with it: at 10 μM in 5-dose testing. The protocol: The present figure, herein, is a summary figure of that data (corresponding to FIG. 16K in the aforementioned Canadian application). Mean G150 for 8b and 8a is 3.09 and 2.85 μM respectively. […] In the 8a case, this GI50 is lower/better than 65% of 102 FDA approved cancer drugs in [112]. A salt of 8a. e.g. 8a HCl, is likely to have an even lower G150 in NCI five-dose testing.
The Pearson correlation coefficient between 8a activity in 1-dose (10 μM) and at 10 μM in 5-dose NCI-60 testing: R=0.4544 p=0.00034. The Pearson correlation coefficient between 8b activity in 1-dose (10 μM) and at 10 μM in 5-dose NCI-60 testing: R=0.6156, p<0.00001. […] So, this isn't unexpected. Not wishing to be bound by theory, in 5-dose NCI-60 testing, why 8a has a lower mean GI50 than 8b will now be explained. […] Except for the cancer cell lines that 8b exerted much more activity than 8a at in 1-dose testing, wherein the increased activity of 8a can't completely make up the deficit and overtake the activity of 8b.

The subject of the next experiment is NCI-H322M. The experiment is described as follows: NCI one-dose (10 μM) testing, NCI-H322M. The experiment is classed as cell-based. The procedure:
as §1

In experiment [2] the test system is cancer cell lines of the NCI-60 assay. The experiment is described as follows: NCI one-dose (10 μM) NCI-60 testing. The experiment is classed as cell-based. The note with it: for inhibition at 10 µM: 1-dose testing; for anti-cancer activity: NCI-60 anti-cancer testing in vitro. The protocol:
FIG. 1: Chiral supercritical fluid chromatography (SFC) was used to separate the shown racemate into its component R and S stereoisomers and two samples of opposite >97% enantiomeric excess (ee) was achieved: termed 8a and 8b respectively. 8a and 8b differ from 6a and 6b because they have methyl (Me, CH3), instead of hydrogen (H), upon their chiral carbon. 8a and 8b were independently tested in NCI one-dose (10 μM) testing: their results are shown in FIGS. (1B) and (1C) respectively.
as §1

Experiment [3] deals with T1, F1F0 ATP hydrolysis (Bos taurus, UniProt P00829+P19483).
T1 construct: IF1 protein depleted Sub-Mitochondrial Particles (SMPs) from Bos taurus; from tissue; host or cells: sub-mitochondrial particles from Bos taurus, endogenous IF1 removed
The note with it: cited from earlier work; for IC50: IF1 protein depleted SMPs from Bos taurus, pH 6.7, 37° C. [142].

A further experiment concerns A498. Briefly: NCI one-dose (10 μM) testing, A498. It is filed as cell-based. The procedure:
as §1

A short description of experiment [4]: rectal temperature and activity of mice administered compound. It is filed as in vivo, mouse. The protocol:
Hypoactivity of mouse, after being administered compound 6b, was because 6b caused the mouse's body temperature to drop towards its ambient temperature (22° C.). When ambient equals optimal body temperature (37° C.), 6b cannot reduce body temperature and cannot cause hypoactivity. In some embodiments, the hypoactivity/sedation aspect to a compound(s) of this disclosure is utilized for therapy. The intersection between drug dose and ambient temperature dictates how much the body temperature falls and thence the depth of the sedation. Larger drug dose, and/or lower ambient temperature, causes deeper sedation (e.g. useful for inducing anaesthesia, pre-anaesthesia, post-anaesthesia, hypoesthesia, sedation, coma, tranquilization, behavioural submission, muscle relaxation and/or treating/ameliorating/preventing/combating insomnia, fatal insomnia, sleep onset latency, delayed sleep phase disorder, exploding head syndrome, parasomnia, sleep-maintenance insomnia, sleep disorder etc.; repeated/continuous administration, e.g. repeated i.v. injections or continuous i.v. infusion, of a compound(s) of this disclosure can sedate a subject for an extended period of time). Smaller drug dose, and/or higher ambient temperature, causes lighter sedation (e.g. useful for anti-anxiety, anti-depression, hyperactivity etc.). At ambient≥optimal body temperature (37° C.), no sedation occurs. […]

Experiment [5] has as its system F1F0 ATP hydrolysis. The note with it: [8, 109]; cited from earlier work.
The next experiment has as its system cells. The note with it: each attached to the cargo sequence by introduced cysteines and a disulphide bond; cited from earlier work.
Setting [6] is: read-out: Mean % cancer growth inhibition.
Setting [7] is: read-out: Median % cancer growth inhibition.

`C[C@](Cn1ccnc1)(N/C(=N/C(=O)c1cccc(C#N)c1)Nc1ccc(Cl)cc1)c1ccc(Cl)cc1Cl` [Compound 8b]: in the experiment with MDA-MB-231/ATCC, the “Δ % cancer growth inhibition, 8b greater than 8a” value amounted to 85.34%. Besides, the inhibition at 10 µM turned out to be 99.4% in experiment [1] (setting [6]), 93% in experiment [1] (setting [7]), 76.5% in [2] (setting [6]) and 77% in experiment [2] (setting [7]). Moreover, the anti-cancer activity result was “does” in the experiment with NCI-H322M and “greater anti-cancer activity than 8a” in experiment [2].

“1-56: Bos taurus IF1 protein fragment, residues 1-56 (GSESGDNVRSSAGAVRDAGGAFGKREQAEEERYFRARAKEQLAALKKHHENEISHH; UniProt P01096 26-81, looked up, fragment) [Compound 1-56]”: in the experiment with F1F0 ATP hydrolysis [3], the IC50 was 0.032 µM.

With `C[C@@](Cn1ccnc1)(N/C(=N/C(=O)c1cccc(C#N)c1)Nc1ccc(Cl)cc1)c1ccc(Cl)cc1Cl` [Compound 8a], the inhibition at 10 µM worked out at 103% in [1] (setting [6]), 95% in experiment [1] (setting [7]), 60.3% in experiment [2] (setting [6]) and 59.8% in [2] (setting [7]). In addition, in the experiment on NCI-H322M, the anti-cancer activity entry is on record as “no activity”. Further, the “Δ % cancer growth inhibition, 8a greater than 8b” value in the experiment on A498 was determined as 38.57.

In the case of `N#Cc1cccc(C(=O)/N=C(\Nc2ccc(Cl)cc2)N[C@H](Cn2ccnc2)c2ccc(Cl)cc2Cl)c1` [Compound 6b], the rectal temperature result in experiment [4] (ambient room temperature 22° C., dose dependent) was “reduces its rectal temperature towards the ambient room temperature”. Also, in experiment [4] (ambient temperature 22° C.), the hypoactivity entry is reported as “hypoactivity”. For the same compound, in the experiment with F1F0 ATP hydrolysis [5], the “ability to inhibit/reduce F1F0 ATP hydrolysis” value was “can potently inhibit/reduce F1F0 ATP hydrolysis”. Moreover, the anti-cancer activity result in experiment [2] is “anti-cancer activity”.

Turning to “1-60: Bos taurus IF1 protein fragment, residues 1-60 (GSESGDNVRSSAGAVRDAGGAFGKREQAEEERYFRARAKEQLAALKKHHENEISHHAKEI; UniProt P01096 26-85, looked up, fragment) [Compound 1-60]”, in the experiment with F1F0 ATP hydrolysis [3], the IC50 is 0.019 µM.

With `N#Cc1cccc(C(=O)/N=C(\Nc2ccc(Cl)cc2)N[C@@H](Cn2ccnc2)c2ccc(Cl)cc2Cl)c1` [Compound 6a], in the experiment on F1F0 ATP hydrolysis [5], the “ability to inhibit/reduce F1F0 ATP hydrolysis” value was “cannot”. The anti-cancer activity result in experiment [2] is reported as “anti-cancer activity”.

On to “RRRRRRR (Cell Penetrating Peptide (CPP) sequence) [Compound R7, heptamer of L-arginine residues, cell penetrating peptide]”, for which, in the experiment with cells, the “cellular penetration compared with Tat or penetratin” value is on record as “twice as good”.

Regarding `[2H][C@@](Cn1ccnc1)(N/C(=N/C(=O)c1cccc(C#N)c1)Nc1ccc(Cl)cc1)c1ccc(Cl)cc1Cl` [Compound 7a], in [2], the anti-cancer activity entry is “less anti-cancer activity than 6a”.

Regarding “Bos taurus IF1 protein: Bos taurus IF1 protein recombinantly produced in E. Coli”, in the experiment with F1F0 ATP hydrolysis [3], the IC50 was 0.034 µM.

As to “10-47: Bos taurus IF1 protein fragment, residues 10-47, mature numbering (SSAGAVRDAGGAFGKREQAEEERYFRARAKEQLAALKK; UniProt P01096 35-72, looked up, fragment) [Compound 10-47]”, in the experiment with F1F0 ATP hydrolysis [3], the IC50 is 0.045 µM.

Take “10-46: Bovine IF1 protein fragment, residues 10-46 (SSAGAVRDAGGAFGKREQAEEERYFRARAKEQLAALK; UniProt P01096 35-71, looked up, fragment) [Compound 10-46]”: in the experiment with F1F0 ATP hydrolysis [3] (bovine IF1 protein fragments, FIG. 10I legend [142, 144]), the inhibitory activity entry is “ten-fold less activity than 10-47”.

One may read the inhibition as the drop in the measured response relative to a control, in per cent. What is called IC50 is the point on the concentration scale where inhibition reaches its midpoint.

The record behind these values is US20250325469A1, “Inhibitors of atp synthase - cosmetic and therapeutic uses” (priority 2021, published 2025).
